In publication PMC7849180 (Frontiers in Pharmacology, 2020):
Several values for one entry are separate records, joined by “and”; a condition that tells them apart may be missing. Equal values may be shown once.

How the values were obtained:
myelofibrosis = assay: Myelofibrosis in JAK2V617F bone marrow transplanted mice; assay type: in vivo; settings: 100 mg/kg, 5 weeks
[1] = Metabolic stability in liver microsomes; assay type: in vitro ADME, monkey
Experimental: The metabolic stability of ZG0128 (the dihydrochloride monohydrate of ZG0163) was evaluated using human, monkey, dog, rat, and mouse liver microsomes as the in vitro models. The percentages of residues for ZG0128 after incubating in human, monkey, dog, rat, and mouse liver microsomes for 60 minutes was 55.5%, 63.1%, 67.1%, 80.3%, and 79.0%, respectively. The CLint values of in vivo clearance were calculated to be 24.1, 21.6, 33.4, 10.7, 26.0 mL/min/kg, respectively. Thus its was speculated that ZG0128 was a medium clearance drug in humans, monkeys, and mice, a high clearance drug in dogs, and a low clearance drug in rats.
Using UPLC-UV/Q-TOF MS, the potential metabolites of ZG0128 in various liver microsomes (human, monkey, dog, rat and mouse liver microsomes) incubation systems were identified and the metabolic pathways of ZG0128 were speculated. The main metabolite of ZG0128 in above five types of liver microsomes were primary alcohol metabolite formed by morpholine ring-opening (M3). […]

JNK = assay: Phosphorylation of c-Jun by JNK; assay type: biochemical
Source text: (§1) Suzhou Zelgen Biopharmaceuticals Co., Ltd. Jaktinib Hydrochloride Tablets Chemical Drug Class 1 New Drug has been completed. The ongoing toxicity tests include a long-term 39-week toxicity test in Beagle dogs by oral administration, a reproductive toxicity test in rats during the teratogenic sensitive period, and a reproductive toxicity test in rabbits during the teratogenic sensitive period.
(§2) Preclinical Pharmacodynamic Study
(§3) Study on the in vitro Pharmacodynamic Effects of ZG0163 at the […]
(§4) In this study, the effects of ZG0163 was similar to those of positive control compounds, ZG0164 and ZG0178.
(§5) Study on the in vitro Pharmacodynamic Effects of ZG0163 at the Cellular Level (Ba/F3-EpoR-JAK2V617F cells)
(§6) JAK2V617F cell line, the compound ZG0163 was able to induce apoptosis of pathogenic cells and eliminate abnormal cell proliferation by inhibiting the JAK-STAT signaling pathway, thus achieving treatment efficacy in myeloproliferative neoplasms. […]
(§7) cell line, manifested as significant inhibition of phosphorylation of JAK2 and its downstream signaling proteins ERK and STAT5. The effects of ZG0163 was similar to those of positive control compounds, ZG0164 and ZG0178.
(§8) EpoR-JAK2V617F, which was similar to those of positive control compounds, ZG0164

[2] = PK, single intravenous dose; assay type: in vivo, beagles; settings: 12.2 mg ZG0128 (1.22 mg/kg)
Experimental: Suzhou Zelgen Biopharmaceuticals Co., Ltd. Jaktinib Hydrochloride Tablets Chemical Drug Class 1 New Drug
Pharmacokinetics of single dose intravenous administration in beagles.
After intravenous administration of 12.2 mg ZG0128 (the average weight of the beagles was about 10 kg, so the dose given equals to 1.22 mg/kg ZG0128), ZG0163 […]
AUC0-t was 70.1% of that of the original drug.
Pharmacokinetics of single-dose intragastric administration.
The average Tmax of ZG0163 was 2.0 h after a single-dose intragastric administration of 1, 2, and 4 ZG0128 tablets (corresponding to 61, 122, and 244 […]
mg/ZG0128). […] The plasma […]
exposure AUC0-t was 459, 948, and 1728 ng•h/mL (mean) and the average plasma […]
There were large individual differences in plasma exposure AUC0-t in dogs. The pharmacokinetic differences between genders could not be determined. Within the range of 61-244 mg, the AUC0-t of ZG0163 increased proportionally with the increasing dosage. The average Tmax of metabolite ZG0245 was 2.0 h. The plasma exposure of metabolite ZG0245 was roughly 2.16 times

[3] = PK, single intravenous dose; assay type: in vivo, rats; settings: 6.1 mg/kg ZG0128 iv
Experimental: Preclinical Pharmacokinetic Properties
Pharmacokinetic Study of Single Dose Intravenous Administration in […]
ZG0163 administered via intravenous injection had low plasma clearance in rats, […]
The Tmax of the metabolite
ZG0245 in rats was 1.0 h on average, and the plasma exposure (AUC0-t) was 15.0% of the original drug. The pharmacokinetic parameters obtained after the intravenous […]
Table 10. Pharmacokinetic parameters of ZG0163 in rats administered with 6.1 mg/kg of ZG0128 via intravenous injection. […]

JAK2 = JAK2 (Homo sapiens, UniProt O60674); assay: Phosphorylation of STAT3 by JAK2; assay type: biochemical
Source text: as §1, §2, §3, §4, §5, §6, §7, §8

[4] = test system: cells transformed by selected oncogenic mutants of tyrosine kinases; assay: Inhibition of transformed cells; assay type: cell-based
ERK = assay: Phosphorylation of Elk-1 by ERK; assay type: biochemical
Source text: as §1, §2, §3, §4, §5, §6, §7, §8

JAK2, sequence (O60674 whole entry): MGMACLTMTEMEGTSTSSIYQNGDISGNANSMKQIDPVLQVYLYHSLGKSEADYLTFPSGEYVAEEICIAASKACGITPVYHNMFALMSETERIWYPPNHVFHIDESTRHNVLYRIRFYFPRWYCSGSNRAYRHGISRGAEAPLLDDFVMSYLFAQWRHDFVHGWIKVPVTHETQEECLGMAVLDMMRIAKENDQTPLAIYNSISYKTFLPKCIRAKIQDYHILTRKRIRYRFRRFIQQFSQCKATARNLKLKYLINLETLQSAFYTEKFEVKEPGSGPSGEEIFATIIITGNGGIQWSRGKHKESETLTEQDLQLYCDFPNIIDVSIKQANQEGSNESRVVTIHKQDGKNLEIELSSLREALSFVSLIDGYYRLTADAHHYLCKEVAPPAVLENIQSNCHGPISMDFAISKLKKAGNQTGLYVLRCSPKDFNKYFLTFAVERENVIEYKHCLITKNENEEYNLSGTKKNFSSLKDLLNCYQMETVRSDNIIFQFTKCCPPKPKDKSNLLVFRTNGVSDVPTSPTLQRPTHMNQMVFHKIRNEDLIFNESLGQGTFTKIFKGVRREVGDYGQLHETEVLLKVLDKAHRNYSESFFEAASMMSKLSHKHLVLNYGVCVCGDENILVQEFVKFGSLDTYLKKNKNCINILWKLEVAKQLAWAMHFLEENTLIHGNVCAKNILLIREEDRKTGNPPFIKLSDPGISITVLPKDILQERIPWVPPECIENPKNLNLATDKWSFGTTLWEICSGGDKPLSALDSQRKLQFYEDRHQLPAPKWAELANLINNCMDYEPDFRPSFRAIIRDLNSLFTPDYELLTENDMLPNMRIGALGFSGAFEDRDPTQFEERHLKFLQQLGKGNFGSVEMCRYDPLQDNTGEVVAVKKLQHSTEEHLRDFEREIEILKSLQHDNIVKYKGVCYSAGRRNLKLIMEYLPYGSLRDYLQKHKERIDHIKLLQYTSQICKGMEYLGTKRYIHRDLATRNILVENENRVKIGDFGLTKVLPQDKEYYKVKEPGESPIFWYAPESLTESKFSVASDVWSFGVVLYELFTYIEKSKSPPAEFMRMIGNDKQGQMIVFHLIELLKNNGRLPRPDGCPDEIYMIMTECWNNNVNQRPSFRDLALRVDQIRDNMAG

For `Cl.Cl.O.[2H]C1([2H])COCC([2H])([2H])N1c1ccc(Nc2nccc(-c3ccc(C(=O)NCC#N)cc3)n2)cc1` [ZG0128, Jaktinib Dihydrochloride Monohydrate], the progression of myelofibrosis (myelofibrosis) was “significantly and effectively inhibited the progression of myelofibrosis”, the “CLint of in vivo clearance” value [1] was 21.6 mL/min/kg and the “percentage of residue after 60 minutes” value [1] was 63.1%.

In the case of Jaktinib, the “effect on phosphorylation of c-Jun by JNK” value (JNK) is reported as “no significant effects”, the “plasma clearance CL” value [2] is reported as 49.3 mL/min/kg and the “volume of distribution Vss” value [2] is reported as 3.49 L/kg. The AUC0-t ([3]; Female) was 26.0 µg·h/mL, the “AUC0-∞” value ([3]; Female) was 26.0 µg·h/mL and the CL ([3]; Female) was 3.23 ± 0.38 mL/min/kg. For the same compound, the MRT ([3]; Female) was 2.11 h, the Vss ([3]; Female) was 0.407 ± 0.063 L/kg and the t1/2 ([3]; Female) was 2.01 h. For the same compound, the AUC0-t ([3]; Male) was 17.7 µg·h/mL, the “AUC0-∞” value ([3]; Male) was 17.7 µg·h/mL and the CL ([3]; Male) was 4.92 ± 1.34 mL/min/kg. It also gave an MRT ([3]; Male) of 2.16 h, a Vss ([3]; Male) of 0.620 ± 0.120 L/kg and a t1/2 ([3]; Male) of 2.01 h. For the same compound, the AUC0-t ([3]; Overall) was 21.8 µg·h/mL, the “AUC0-∞” value ([3]; Overall) was 21.9 µg·h/mL and the MRT ([3]; Overall) was 2.14 h. The t1/2 ([3]; Overall) was 2.01 h, the CL ([3]; Overall, listed as ZG0163) was 4.07 mL/min/kg and 4.07 ± 1.28 mL/min/kg and the Vss ([3]; Overall, listed as ZG0163) was 0.514 L/kg and 0.514 ± 0.145 L/kg. The IC50 (JAK2) was about 100 nM, the IC50 [4] was 100 nM and the “effect on phosphorylation of Elk-1 by ERK” value (ERK) was “significantly inhibited”.
